# US20200270233A1, “DHFR INHIBITORS, COMPOSITIONS, AND METHODS RELATED THERETO” (Vyera Pharmaceuticais LLC, priority 2017, published 2020)
# Where two headings read alike, the source gives them in different places.
# What was measured:
# [1] = target: T1, T. gondii DHFR (tgDHFR) (Toxoplasma gondii, UniProt Q07422); assay: biochemical; details: for Average DHFR selectivity (h/tg): hDHFR IC50/tgDHFR IC50
# T1 sequence (Q07422 1-610): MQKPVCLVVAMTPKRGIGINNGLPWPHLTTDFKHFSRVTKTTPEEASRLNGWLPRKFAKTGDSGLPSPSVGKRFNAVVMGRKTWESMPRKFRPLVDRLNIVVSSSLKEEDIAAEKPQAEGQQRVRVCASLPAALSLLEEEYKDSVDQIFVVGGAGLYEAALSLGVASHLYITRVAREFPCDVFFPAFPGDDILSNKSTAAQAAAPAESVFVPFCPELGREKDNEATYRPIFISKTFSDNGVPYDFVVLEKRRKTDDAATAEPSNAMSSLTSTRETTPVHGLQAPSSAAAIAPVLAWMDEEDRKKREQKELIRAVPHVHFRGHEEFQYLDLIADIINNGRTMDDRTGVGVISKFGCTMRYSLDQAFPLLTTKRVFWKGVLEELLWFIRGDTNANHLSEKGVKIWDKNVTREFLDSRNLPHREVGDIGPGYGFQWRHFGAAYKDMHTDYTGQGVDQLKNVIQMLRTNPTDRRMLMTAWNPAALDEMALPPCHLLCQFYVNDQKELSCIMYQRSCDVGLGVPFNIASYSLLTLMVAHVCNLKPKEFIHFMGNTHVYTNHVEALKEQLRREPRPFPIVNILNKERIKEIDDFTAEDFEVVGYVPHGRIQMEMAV
# [2] = target: T2, hDHFR (Homo sapiens, UniProt P00374); type: biochemical
# T2 sequence (P00374 1-187): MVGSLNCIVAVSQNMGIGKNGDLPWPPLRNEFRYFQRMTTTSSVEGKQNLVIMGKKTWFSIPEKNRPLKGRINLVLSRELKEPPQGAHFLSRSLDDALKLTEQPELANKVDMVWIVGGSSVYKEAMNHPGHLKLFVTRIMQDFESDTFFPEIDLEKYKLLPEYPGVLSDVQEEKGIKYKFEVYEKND
# [3] = Table 16, pIC50 = -log10 IC50, at least three replicates, read-out: hDHFR pIC50-DHFR primary assay (converted)
# [4] = Table 18, pIC50 = -log10 IC50, at least three replicates, read-out: hDHFR pIC50-DHFR primary assay (converted)
# [5] = Table 16, pIC50 = -log10 IC50, at least three replicates, read-out: tgDHFR pIC50-DHFR primary assay (converted)
Structure (SMILES),IC50 [1] [nM],"IC50 [2, 3] [nM]",other results
"Nc1ncc(N2CCN(c3ccc(Cl)c(Cl)c3)CC2)c(N)n1 [Compound 1, 5-(4-(3,4-dichlorophenyl)piperazin-1-yl)pyrimidine-2,4-diamine]",13.8,75.9,
"Nc1ncc(N2CCN(c3cccc(Br)c3)CC2)c(N)n1 [Compound 11, 5-(4-(3-bromophenyl)piperazin-1-yl)pyrimidine-2,4-diamine]",11.7,437,
"Nc1ncc(N2CCC(c3ccccc3)CC2)c(N)n1 [Compound 15, 5-(4-phenylpiperidin-1-yl)pyrimidine-2,4-diamine]",162,4070,
"Nc1ncc(N2CCN(c3cccc(N4CCOCC4)c3)CC2)c(N)n1 [Compound 25, 5-(4-(3-morpholinophenyl)piperazin-1-yl)pyrimidine-2,4-diamine]",138,14100,
"CC1CN(c2cnc(N)nc2N)CCN1c1cccc(-c2ccccc2)c1 (stereo not shown) [Compound 26, 5-(4-([1,1′-biphenyl]-3-yl)-3-methylpiperazin-1-yl)pyrimidine-2,4-diamine]",2,30.2,
"CC1CN(c2cccc(-c3ccccc3)c2)CCN1c1cnc(N)nc1N (stereo not drawn) [Compound 27, 5-(4-([1,1′-biphenyl]-3-yl)-2-methylpiperazin-l-yl)pyrimidine-2,4-diamine]",138,30200,
"CCc1nc(N)nc(N)c1N1CCN(c2ccccc2)CC1 [Compound 28, 6-ethyl-5-(4-phenylpiperazin-1-yl)pyrimidine-2,4-diamine]",5.75,1350,
"CCc1nc(N)nc(N)c1N1CCN(c2cccc(C)c2)CC1 [Compound 31, 6-ethyl-5-(4-(m-tolyl)piperazin-1-yl)pyrimidine-2,4-diamine]",3.47,417,
"CCc1nc(N)nc(N)c1N1CCN(c2cccc(OC)c2)CC1 [Compound 33, 6-ethyl-5-(4-(3-methoxyphenyl)piperazin-1-yl)pyrimidine-2,4-diamine]",4.37,,IC50 ([2]; hDHFR pIC50-DHFR primary assay): 525 nM
"CCc1nc(N)nc(N)c1N1CCN(c2ccccn2)CC1 [Compound 34, 6-ethyl-5-(4-(pyridin-2-yl)piperazin-1-yl)pyrimidine-2,4-diamine]",6.46,1020,
"CCc1nc(N)nc(N)c1N1CCN(c2ccc(F)cc2)CC1 [Compound 35, 6-ethyl-5-(4-(4-fluorophenyl)piperazin-1-yl)pyrimidine-2,4-diamine]",6.92,,
"CCc1nc(N)nc(N)c1N1CCN(c2ccncc2)CC1 [Compound 36, 6-ethyl-5-(4-(pyridin-4-yl)piperazin-1-yl)pyrimidine-2,4-diamine]",269,30200,
"CCc1nc(N)nc(N)c1N1CCN(c2ccc(C)cc2)CC1 [Compound 39, 6-ethyl-5-(4-(p-tolyl)piperazin-1-yl)pyrimidine-2,4-diamine]",12.3,1740,
"CCc1nc(N)nc(N)c1N1CCN(c2ccc(F)cn2)CC1 [Compound 44, 6-ethyl-5-(4-(5-fluoropyridin-2-yl)piperazin-1-yl)pyrimidine-2,4-diamine]",4.17,295,
"CCc1nc(N)nc(N)c1N1CCN(c2ccc(C)cn2)CC1 [Compound 45, 6-ethyl-5-(4-(5-methylpyridin-2-yl)piperazin-1-yl)pyrimidine-2,4-diamine]",5.89,794,
"Cc1nc(N)nc(N)c1N1CCN(c2cccc(Cl)c2)CC1 [Compound 46, 5-(4-(3-chlorophenyl)piperazin-1-yl)-6-methylpyrimidine-2,4-diamine]",8.13,,Average DHFR selectivity (h/tg) ([1]; Table 16): 29.68; IC50 [2]: 240 nM
"Cc1nc(N)nc(N)c1N1CCN(c2ccccc2)CC1 [Compound 47, 6-methyl-5-(4-phenylpiperazin-1-yl)pyrimidine-2,4-diamine]",26.3,2240,
"CCCc1nc(N)nc(N)c1N1CCC(c2ccccc2)CC1 [Compound 51, 5-(4-phenylpiperidin-1-yl)-6-propylpyrimidine-2,4-diamine]",11.7,2450,
"CCCc1nc(N)nc(N)c1N1CCN(c2ccc(F)cc2)CC1 [Compound 52, 5-(4-(4-fluorophenyl)piperazin-1-yl)-6-propylpyrimidine-2,4-diamine]",33.1,10000,
"CCCc1nc(N)nc(N)c1N1CCN(c2ccccn2)CC1 [Compound 56, 6-propyl-5-(4-(pyridin-2-yl)piperazin-1-yl)pyrimidine-2,4-diamine]",25.7,6760,
"CCCc1nc(N)nc(N)c1N1CCN(c2ncc(C)cn2)CC1 [Compound 59, 5-(4-(5-methylpyrimidin-2-yl)piperazin-1-yl)-6-propylpyrimidine-2,4-diamine]",70.8,8130,

Structure (SMILES),IC50 [1] [nM],"IC50 [2, 3] [nM]",other results
"CCCc1nc(N)nc(N)c1N1CCN(c2ccc(OC)cn2)CC1 [Compound 60, 5-(4-(5-methoxypyridin-2-yl)piperazin-1-yl)-6-propylpyrimidine-2,4-diamine]",20,2880,
Nc1ncc(N2CCN(c3cccc(-c4cccc(F)c4)c3)CC2)c(N)n1 [Compound 64],11.5,1070,
N#Cc1cccc(-c2cccc(N3CCN(c4cnc(N)nc4N)CC3)c2)c1 [Compound 67],3.89,302,
"Cc1ncc(-c2cccc(N3CCN(c4cnc(N)nc4N)CC3)c2)cn1 [Compound 69, 5-(4-(3-(2-methylpyrimidin-5-yl)phenyl)piperazin-1-yl)pyrimidine-2,4-diamine]",4.47,,
Nc1ncc(N2CCN(c3cccc(-c4cncnc4)c3)CC2)c(N)n1 [Compound 74],,,"IC50 [2, 4]: 3090 nM"
COc1ncccc1-c1cccc(N2CCN(c3cnc(N)nc3N)CC2)c1 [Compound 80],6.17,1020,
Nc1ncc(N2CCN(c3cccc(-c4cnc(C5CC5)nc4)c3)CC2)c(N)n1 [Compound 86],,,"IC50 [2, 4]: 832 nM"
CCc1ncc(-c2cccc(N3CCN(c4cnc(N)nc4N)CC3)c2)cn1 [Compound 95],7.24,1580,"IC50 [2, 4]: 1410 nM"
CN(C)c1ncc(-c2cccc(N3CCN(c4cnc(N)nc4N)CC3)c2)cn1 [Compound 96],10,1150,
CNc1ncc(-c2cccc(N3CCN(c4cnc(N)nc4N)CC3)c2)cn1 [Compound 97],5.62,741,
Nc1ncc(N2CCN(c3cccc(-c4cnc(Cl)nc4)c3)CC2)c(N)n1 [Compound 100],6.76,1320,"IC50 [2, 4]: 1320 nM"
Nc1nc(N)c(N2CCN(c3ccccc3)CC2)c(CC2CC2)n1 [Compound 106],27.5,5890,
"Nc1ncc(N2CCN(c3cccc(C4CCOCC4)c3)CC2)c(N)n1 [Compound 110, 5-(4-(3-(tetrahydro-2H-pyran-4-yl)phenyl)piperazin-1-yl)pyrimidine-2,4-diamine]",34.7,6170,"IC50 ([2]; Table 20, pIC50 = -log10 IC50, at least three replicates, read-out: hDHFR pIC50-DHFR primary assay (converted)): 7760 nM"
"Cc1ncc(-c2cccc(C3CCN(c4cnc(N)nc4N)CC3)c2)cn1 [Compound 113, 5-(4-(3-(2-methylpyrimidin-5-yl)phenyl)piperidin-1-yl)pyrimidine-2,4-diamine]",6.17,372,
COc1ncc(-c2cccc(N3CCN(c4cnc(N)nc4N)CC3)n2)cn1 [Compound 158],,18.2,"Average DHFR selectivity (h/tg) ([1]; Table 16): 17.78; IC50 [1, 5]: 1.02 nM"
COc1ncc(-c2cccc(N3CCN(c4cnc(N)nc4N)CC3)c2F)cn1 [Compound 159],,2340,"Average DHFR selectivity (h/tg) ([1]; Table 16): 80.32; IC50 [1, 5]: 30.2 nM"
COc1ncc(-c2cc(N3CCN(c4cnc(N)nc4N)CC3)ccc2F)cn1 [Compound 160],,389,"Average DHFR selectivity (h/tg) ([1]; Table 16): 156.11; IC50 [1, 5]: 2.51 nM"
COc1ncc(-c2cc(F)cc(N3CCN(c4cnc(N)nc4N)CC3)c2)cn1 [Compound 161],,138,"Average DHFR selectivity (h/tg) ([1]; Table 16): 51.27; IC50 [1, 5]: 2.69 nM"
COc1ncc(-c2cncc(N3CCN(c4cnc(N)nc4N)CC3)c2)cn1 [Compound 162],,1450,"Average DHFR selectivity (h/tg) ([1]; Table 16): 117.08; IC50 [1, 5]: 12.3 nM"
COc1ncc(-c2cc(N3CCN(c4cnc(N)nc4N)CC3)ccn2)cn1 [Compound 163],,155,"Average DHFR selectivity (h/tg) ([1]; Table 16): 23.00; IC50 [1, 5]: 6.76 nM"
COc1ncc(-c2ccc(F)c(N3CCN(c4cnc(N)nc4N)CC3)c2)cn1 [Compound 164],,562,"Average DHFR selectivity (h/tg) ([1]; Table 16): 65.26; IC50 [1, 5]: 8.71 nM"
